This experiment in a line: Radical scavenging activity (DPPH method). The note with it: positive control. The protocol:
Residual phenolic in growth media ([…]) were recovered as follows: samples of the growth media were taken at different time points along L. johnsonii N6.2 growth kinetics. The supernatant was recovered by centrifugation (4000 g for 30 min at 4° C.) and saved as aliquots at -20° C. until processing. Soluble phenolic compounds were recovered by solid-phase extraction using […] column (ThermoScientific, WI, USA) as described by Correa-Betanz et al. (2015). The total scavenging activity of the culture media was assessed by using the DPPH method described by Dong et al. (2017). The samples ([…] or its polyphenol enriched fractions) were diluted (1⁄2 and 1/10) in methanol. […] The quenching ability of L-ascorbic acid was used as a positive control. The absorbance was measured at 515 nm using a Sinergy HT microplate reader (Biotek, Winooski, Vt., USA). The scavenging activity (SA) was estimated by the following formula: % SA=[(Abscontrol-blank-Abssample-blank)/Abscontrol-blank]×100. Total radical scavenging activity (% SA) is expressed in percent of quenching activity per μg of gallic acid equivalents.
On the technique in general: Loss of DPPH colour is used to gauge radical scavenging.

The source of these data is patent publication US11602553B2, “Composition of lactobacillus and berry extract” (UNIVERSITY OF FLORIDA RESEARCH FOUNDATION, INCORPORATED, priority 2018, dated 2023).

In the case of `O=C1O[C@H]([C@@H](O)CO)C(O)=C1O` [L-ascorbic acid], the “DPPH scavenging activity (% SA)” value is given as 20.2±0.85 % SA.
